Patent US11000033B2, “Ketone or oxime compound, and herbicide” (NISSAN CHEMICAL CORPORATION, priority 2014, dated 2021)

Experiments:
Type in all cases: in vivo
[1] = system: Veronica persica; test: Test Example 5: herbicidal effect by foliage application, plastic box (symbol R); conditions: 320 g/ha, 3 weeks after application
Method in brief: (§1)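 Effect is rated 3 weeks after a foliar spray of water-diluted emulsion concentrate at a predetermined herbicide amount. Plants had grown 14 days in a 25° C. to 30° C. greenhouse from seed in sterilized diluvial soil.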

[2] = system: Scirpus juncoides; test: Test Example 2: herbicidal activity, application during weed generation in submerged conditions (symbol B); conditions: Table 23; application herbicide amount 320 g/ha; grade 0-5 by criteria of Test Example 1
Protocol: (§2) Herbicidal Activity Test by Application During Weed Generation in Submerged Conditions
(§3) After alluvial soil was placed into 1/10000 are of Wagner pot, water was poured and mixed to form a submerged condition having a water depth of 4 cm. Seeds of Echinochloa oryzacola Vasing., Scirpus juncoides, and Monochoria vaginalis were sowed in a mixed manner in the above pot and the pot was placed in the greenhouse of 25° C. to 30° C. to grow the plants. When Echinochloa oryzacola Vasing., Scirpus juncoides, and Monochoria vaginalis were grown to one leaf stage to two leaf stage, the emulsion agent of the compound of the present invention prepared in accordance with Formulation Example 2 was diluted with water so as to be a predetermined herbicide amount and the diluted emulsion agent was applied to the surface of the water. 3 weeks later from the herbicide application, the effect to each plant was investigated in accordance with the criteria of Test Example 1.

[3] = system: Digitaria ciliaris; test: Test Example 5: herbicidal effect by foliage application, plastic box (symbol F); conditions: 320 g/ha, 3 weeks after application
Method in brief: as §1

[4] = system: Echinochloa crus-galli var. crus-galli; test: Test Example 5: herbicidal effect by foliage application, plastic box (symbol H); conditions: 320 g/ha, 3 weeks after application
Method in brief: as §1

[5] = system: Abutilon theophrasti; test: Test Example 5: herbicidal effect by foliage application, plastic box (symbol M); conditions: 320 g/ha, 3 weeks after application
Method in brief: as §1

[6] = system: Setaria viridis; test: Test Example 5: herbicidal effect by foliage application, plastic box (symbol G); conditions: 320 g/ha, 3 weeks after application
Method in brief: as §1

[7] = system: Cyperus difformis; test: Test Example 3: herbicidal effect by foliage application, Wagner pot (symbol E); conditions: application herbicide amount 320 g/ha
Method in brief: (§4)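 Alluvial soil was flooded to a depth of 0.1–0.5 cm, seeded with the weeds and rice, and kept in a greenhouse at 25–30 °C. After 14 days of growth, the foliage received a small-sprayer application of emulsion diluted to the intended rate; injury was rated at 3 weeks.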

[8] = system: soybean; test: Test Example 5: effect on crop by foliage application, plastic box (symbol d); conditions: 320 g/ha, 3 weeks after application
Method in brief: (§5)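 Crop seed is sown alongside grass and broadleaf weed species in spots in sterilized diluvial soil, then covered to a depth of about 1.5 cm. Plants grow in a greenhouse kept at 25° C. to 30° C.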

[9] = system: Avena fatua; test: Test Example 5: herbicidal effect by foliage application, plastic box (symbol I); conditions: 320 g/ha, 3 weeks after application
Method in brief: as §1

[10] = system: wheat; test: Test Example 5: effect on crop by foliage application, plastic box (symbol e); conditions: 320 g/ha, 3 weeks after application
Method in brief: as §5

[11] = system: rice plant; test: Test Example 5: effect on crop by foliage application, plastic box (symbol b); conditions: 320 g/ha, 3 weeks after application
Method in brief: as §5

[12] = system: Chenopodium album; test: Test Example 5: herbicidal effect by foliage application, plastic box (symbol O); conditions: 320 g/ha, 3 weeks after application
Method in brief: as §1

[13] = system: Echinochloa oryzacola Vasing.; test: Test Example 2: herbicidal activity, application during weed generation in submerged conditions (symbol A); conditions: Table 23; application herbicide amount 320 g/ha; grade 0-5 by criteria of Test Example 1
Protocol: as §2, §3

[14] = system: Leptochloa chinensis; test: Test Example 3: herbicidal effect by foliage application, Wagner pot (symbol D); conditions: application herbicide amount 320 g/ha
Method in brief: as §4

[15] = system: beet; test: Test Example 5: effect on crop by foliage application, plastic box (symbol f); conditions: 320 g/ha, 3 weeks after application
Method in brief: as §5

[16] = system: directly sowed rice plant; test: Test Example 3: effect on crop by foliage application, Wagner pot (symbol b); conditions: application herbicide amount 320 g/ha
Method in brief: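 Plants are raised from seed in flooded paddy conditions: water stands 0.1–0.5 cm over alluvial soil, and the pot is kept in a greenhouse at 25–30 °C. Species sown are barnyardgrass (E. crus-galli var. crus-galli), Leptochloa chinensis, Cyperus difformis and rice.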

[17] = system: Alopecurus myosuroides; test: Test Example 5: herbicidal effect by foliage application, plastic box (symbol J); conditions: 320 g/ha, 3 weeks after application
Method in brief: as §1

[18] = system: corn; test: Test Example 5: effect on crop by foliage application, plastic box (symbol c); conditions: 320 g/ha, 3 weeks after application
Method in brief: as §5

[19] = system: Stellaria media; test: Test Example 5: herbicidal effect by foliage application, plastic box (symbol P); conditions: 320 g/ha, 3 weeks after application
Method in brief: as §1

[20] = system: Amaranthus retroflexus; test: Test Example 5: herbicidal effect by foliage application, plastic box (symbol N); conditions: 320 g/ha, 3 weeks after application
Method in brief: as §1

[21] = system: Apera spica-venti; test: Test Example 5: herbicidal effect by foliage application, plastic box (symbol L); conditions: 320 g/ha, 3 weeks after application
Method in brief: as §1

[22] = system: Echinochloa crus-galli var. crus-galli; test: Test Example 3: herbicidal effect by foliage application, Wagner pot (symbol H); conditions: application herbicide amount 320 g/ha
Method in brief: as §4

[23] = system: Monochoria vaginalis; test: Test Example 2: herbicidal activity, application during weed generation in submerged conditions (symbol C); conditions: Table 23; application herbicide amount 320 g/ha; grade 0-5 by criteria of Test Example 1
Protocol: as §2, §3

[24] = system: Galium spurium; test: Test Example 5: herbicidal effect by foliage application, plastic box (symbol Q); conditions: 320 g/ha, 3 weeks after application
Method in brief: as §1

[25] = system: Lolium multiflorum Lam.; test: Test Example 5: herbicidal effect by foliage application, plastic box (symbol K); conditions: 320 g/ha, 3 weeks after application
Method in brief: as §1

[26] = system: rapeseed; test: Test Example 5: effect on crop by foliage application, plastic box (symbol g); conditions: 320 g/ha, 3 weeks after application
Method in brief: as §5

SMILES | R: Veronica persica, herbicidal effect grade [1] | Herbicidal effect grade, B: Scirpus juncoides [2] | F: Digitaria ciliaris, herbicidal effect grade [3] | H: Echinochloa crus-galli var. crus-galli, herbicidal effect grade [4] | M: Abutilon theophrasti, herbicidal effect grade [5] | G: Setaria viridis, herbicidal effect grade [6] | d: soybean, effect on crop grade [8] | I: Avena fatua, herbicidal effect grade [9] | e: wheat, effect on crop grade [10] | b: directly sowed rice plant, effect on crop grade [11] | O: Chenopodium album, herbicidal effect grade [12] | Herbicidal effect grade, A: Echinochloa oryzacola Vasing. [13] | f: beet, effect on crop grade [15] | J: Alopecurus myosuroides, herbicidal effect grade [17] | c: corn, effect on crop grade [18] | P: Stellaria media, herbicidal effect grade [19] | N: Amaranthus retroflexus, herbicidal effect grade [20] | L: Apera spica-venti, herbicidal effect grade [21] | Herbicidal effect grade, C: Monochoria vaginalis [23] | Q: Galium spurium, herbicidal effect grade [24] | also measured
CON=C(C)CC1CC(O)=C(c2c(C)cc(C#CC(C)(C)O)cc2C)C1=O (mixture of isomers) [6-036] | 3 (Herbicidal ratio of 40% or higher and lower than 70%) | 0 (Herbicidal ratio of 5% or lower (almost no effect)) | 4 (Herbicidal ratio of 70% or higher and lower than 90%) | 5 (Herbicidal ratio of 90% or more (almost completely withered)) | 0 (Herbicidal ratio of 5% or lower (almost no effect)) | 4 (Herbicidal ratio of 70% or higher and lower than 90%) | 0 (Herbicidal ratio of 5% or lower (almost no effect)) | 3 (Herbicidal ratio of 40% or higher and lower than 70%) | 0 (Herbicidal ratio of 5% or lower (almost no effect)) | 4 (Herbicidal ratio of 70% or higher and lower than 90%) | 0 (Herbicidal ratio of 5% or lower (almost no effect)) | 3 (Herbicidal ratio of 40% or higher and lower than 70%) | 0 (Herbicidal ratio of 5% or lower (almost no effect)) | 3 (Herbicidal ratio of 40% or higher and lower than 70%) | 4 (Herbicidal ratio of 70% or higher and lower than 90%) | 1 (Herbicidal ratio of 5% or higher and lower than 20%) | 0 (Herbicidal ratio of 5% or lower (almost no effect)) | 3 (Herbicidal ratio of 40% or higher and lower than 70%) | 0 (Herbicidal ratio of 5% or lower (almost no effect)) | 0 (Herbicidal ratio of 5% or lower (almost no effect)) | herbicidal effect on E, grade 0-5 [7]: 3 (Herbicidal ratio of 40% or higher and lower than 70%); herbicidal effect on D (Leptochloa chinensis), grade 0-5 [14]: 5 (Herbicidal ratio of 90% or more (almost completely withered)); effect on crop b (directly sowed rice plant), grade 0-5 [16]: 4 (Herbicidal ratio of 70% or higher and lower than 90%); herbicidal effect on H (Echinochloa crus-galli var. crus-galli), grade 0-5 [22]: 4 (Herbicidal ratio of 70% or higher and lower than 90%); K: Lolium multiflorum Lam., herbicidal effect grade [25]: 5 (Herbicidal ratio of 90% or more (almost completely withered)); g: rapeseed, effect on crop grade [26]: 3 (Herbicidal ratio of 40% or higher and lower than 70%)
COc1cc(Br)cc(C)c1C1=C(O)CC(C(C)C(C)=O)C1=O (stereo not shown) [7-031] | 0 (Herbicidal ratio of 5% or lower (almost no effect)) | 1 (Herbicidal ratio of 5% or higher and lower than 20%) | 4 (Herbicidal ratio of 70% or higher and lower than 90%) | 5 (Herbicidal ratio of 90% or more (almost completely withered)) | 0 (Herbicidal ratio of 5% or lower (almost no effect)) | 5 (Herbicidal ratio of 90% or more (almost completely withered)) | 0 (Herbicidal ratio of 5% or lower (almost no effect)) | 3 (Herbicidal ratio of 40% or higher and lower than 70%) | 0 (Herbicidal ratio of 5% or lower (almost no effect)) | 4 (Herbicidal ratio of 70% or higher and lower than 90%) | 0 (Herbicidal ratio of 5% or lower (almost no effect)) | 0 (Herbicidal ratio of 5% or lower (almost no effect)) | 0 (Herbicidal ratio of 5% or lower (almost no effect)) | 3 (Herbicidal ratio of 40% or higher and lower than 70%) | 1 (Herbicidal ratio of 5% or higher and lower than 20%) | 0 (Herbicidal ratio of 5% or lower (almost no effect)) | 0 (Herbicidal ratio of 5% or lower (almost no effect)) | 5 (Herbicidal ratio of 90% or more (almost completely withered)) | 2 (Herbicidal ratio of 20% or higher and lower than 40%) | 0 (Herbicidal ratio of 5% or lower (almost no effect)) | E herbicidal effect grade ([7]; Table 24): 3 (Herbicidal ratio of 40% or higher and lower than 70%); D (Leptochloa chinensis) herbicidal effect grade ([14]; Table 24): 5 (Herbicidal ratio of 90% or more (almost completely withered)); b (directly sowed rice plant) effect on crop grade ([16]; Table 24): 5 (Herbicidal ratio of 90% or more (almost completely withered)); H (Echinochloa crus-galli var. crus-galli) herbicidal effect grade ([22]; Table 24): 4 (Herbicidal ratio of 70% or higher and lower than 90%); K: Lolium multiflorum Lam., herbicidal effect grade [25]: 5 (Herbicidal ratio of 90% or more (almost completely withered)); g: rapeseed, effect on crop grade [26]: 0 (Herbicidal ratio of 5% or lower (almost no effect))
